Test results taken from patent US4895727A, “Pharmaceutical vehicles for exhancing penetration and retention in the skin” (priority 1985, dated 1990).
Read-outs that look alike come from different tables or passages of the source.

Assays:
[1] = test system: human breast adenocarcinoma, MX-1
[2] = background; cited from earlier work
[3] = 0.257 moles per 100 grams; general statement; cited from earlier work
[4] = number of animals of five, single intratumor injection 0.01 ml, standard dosage level

Compound	Premature Death ([1]; in vivo)	Tumor at Death ([1]; in vivo)	further results
CC(Cc1ccc(O)c(O)c1)C(C)Cc1ccc(O)c(O)c1 (racemic) [dl-NDGA (no Zn), nordihydroguaiaretic acid]	0	1	Tumor Free 60 Days [1, 4]: 4; Tumor Recurrence [1, 4]: 0
CN(Cc1cnc2nc(N)nc(N)c2n1)c1ccc(C(=O)N[C@@H](CCC(=O)O)C(=O)O)cc1 [methotrexate]	–	–	systemic toxicity [2]: systemically toxic
COc1cc(C2c3cc4c(cc3C(O)C3COC(=O)C23)OCO4)cc(OC)c1O (centres unmarked) [4'-demethylepipodophyllotoxin (no Zn), 4'-demethylepipodophyllotoxin]	0	4	Tumor Free 60 Days ([1]; in vivo): 1; Tumor Recurrence ([1]; in vivo): 3
O=C(O)C=Cc1ccc(O)cc1 [p-hydroxycinnamic acid (no Zn), p-hydroxycinnamic acid]	0	–	–
Oc1ncnc2[nH]ncc12 [allopurinol (no Zn), allopurinol]	0	–	–
COc1cc(C2c3cc4c(cc3C(OC3OC5COC(c6cccs6)OC5C(O)C3O)C3COC(=O)C23)OCO4)cc(OC)c1O (stereo not drawn) [VM-26 (no Zn), epipodophyllotoxin beta-D thenylidene glucopyranoside]	0	5	Tumor Free 60 Days ([1]; in vivo): 0; Tumor Recurrence ([1]; in vivo): 0
CC(C)(C)c1cccc(O)c1 [3-tertbutylphenol (no Zn), 3-tertbutylphenol]	3	–	–
COc1cccc2c1C(=O)c1c(O)c3c(c(O)c1C2=O)C[C@@](O)(C(=O)CO)C[C@@H]3O[C@H]1C[C@H](N)[C@H](O)[C@H](C)O1 [adriamycin (no Zn), adriamycin]	1	–	–
CO[C@@]12[C@H](COC(N)=O)C3=C(C(=O)C(C)=C(N)C3=O)N1C[C@@H]1N[C@@H]12 [mitomycin (no Zn), mitomycin]	4	–	–
O=C(O)CCCCCCCC(=O)O [azelaic acid (no Zn), azelaic acid]	0	–	–
N.N.[Cl][Pt][Cl] [platinum cis-diamine-dichloride (no Zn), platinum cis-diamine-dichloride]	0	4	Tumor Free 60 Days [1, 4]: 1; Tumor Recurrence [1, 4]: 0
O=P1(N(CCCl)CCCl)NCCCO1 (centres unmarked) [cyclophosphamide (no Zn), cyclophosphamide]	0	5	Tumor Free 60 Days [1, 4]: 0; Tumor Recurrence [1, 4]: 0
Oc1ccc(CCc2ccc(CCc3ccc(O)c(O)c3)cc2)cc1O [1,4-bis(3,4-dihydroxyphenethyl)-benzene]	0	–	–
CC(=O)Oc1ccc(C=CC=Cc2ccccc2)cc1OC(C)=O [1-(3,4-diacetoxyphenyl)-4-phenyl-buta-1,3-diene]	0	–	–
COc1cc(C2c3cc4c(cc3C(OC3OC5COC(C)OC5C(O)C3O)C3COC(=O)C23)OCO4)cc(OC)c1O (stereo not drawn) [VP-16 (no Zn), epipodophyllotoxin beta-D ethylidene glucopyranoside]	2	3	Tumor Free 60 Days ([1]; in vivo): 2; Tumor Recurrence ([1]; in vivo): 0
norisoguaiacin [norisoguaiacin (no Zn)]	1	1	Tumor Free 60 Days [1, 4]: 2; Tumor Recurrence [1, 4]: 0
COc1cccc2c1C(=O)c1c(O)c3c(c(O)c1C2=O)C[C@@](O)(C(C)=O)C[C@@H]3O[C@H]1C[C@H](N)[C@H](O)[C@H](C)O1 [daunomycin (no Zn), daunomycin]	2	–	–
CC/C(=C(/CC)c1ccc(O)cc1)c1ccc(O)cc1 [diethylstilbestrol (no Zn), diethylstilbestrol]	2	–	–
[Cl-].[Cl-].[Zn+2] [zinc chloride]	–	–	concentration causing tissue destruction when topically applied [3]: ≥ 35%
O=C1c2c(O)cccc2Cc2cccc(O)c21 [dithranol (no Zn), dithranol]	0	–	–
